Measured values published in patent publication US20250042890A1, “METHIONINE ADENOSYLTRANSFERASE 2a (MAT2A) INHIBITORS AND USES THEREOF” (Insilico Medicine IP Limited, priority 2021, published 2025).

target: MAT2A (Homo sapiens (Human), UniProt P31153); assay: MAT2A Biochemical Assay; settings: Biomol Green readout O.D.620; 1 uM start, 3-fold dilution, 10 doses; read-out: MAT2A enzymatic IC50
Method: Example A: MAT2A Biochemical Assay
Compounds described herein were tested as follows:
• (1). Prepared 1×Assay buffer. • (2). Preparation of compound concentration gradient: the compounds test condition were 1 uM start, 3-fold dilution, 10 doses, singlet or duplicate. 100× concentration compounds were prepared in 384-well plate. Then used Echo 550 to transfer 250 nl to a 384-reaction plate for later use. Added 250 nl of 100% DMSO to the negative and positive control wells. • (3). Prepared 1.67× final concentration enzyme solution with 1×Assay buffer. • (4). Added 15 μl of 1.67× Enzyme solution to the compound wells and positive control wells; added 15 μl of 1 Assay buffer to the negative control wells. • (5). Centrifuged at 1000 rpm for 30 seconds and incubate for 15 minutes. • (6). Prepared 2.5× final concentration Substrate mix solution with 1×Assay buffer. • (7). Added 10 μl of 2.5× final concentration Substrate mix solution to start the reaction. • (8). Centrifuged at 1000 rpm for 30 seconds and incubate for 150 minutes. • (9). Added 50 μl Biomol Green to stop the reaction, centrifuge at 1000 rpm for 30 seconds and incubate for 15 minutes. read O.D.620, process data.
• (1) Using GraphPad Prism 5. • (2) % Inh=(Max signal−Compound signal)/(Max signal−Min signal)*100. • (3) Max signal was obtained from the positive control wells. • (4) Min signal was obtained from the negative control wells.

Chain of MAT2A (P31153 whole entry, species assumed): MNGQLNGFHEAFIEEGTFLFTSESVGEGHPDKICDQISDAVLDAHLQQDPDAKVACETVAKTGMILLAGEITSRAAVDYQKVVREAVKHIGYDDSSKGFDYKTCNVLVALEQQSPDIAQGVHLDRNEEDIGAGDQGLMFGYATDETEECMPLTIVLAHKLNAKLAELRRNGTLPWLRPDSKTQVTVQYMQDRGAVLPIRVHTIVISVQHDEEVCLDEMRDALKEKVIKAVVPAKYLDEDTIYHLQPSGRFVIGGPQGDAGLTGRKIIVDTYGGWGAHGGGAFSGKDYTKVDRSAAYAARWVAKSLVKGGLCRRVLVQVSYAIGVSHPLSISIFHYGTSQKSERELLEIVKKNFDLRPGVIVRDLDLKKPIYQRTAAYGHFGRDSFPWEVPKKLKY

Compound | IC50
C#CC1(Nc2nc(=O)n(-c3cccnc3)c3cc(C(F)(F)F)cnc23)CC1 [Example 56, 4-((1-ethynylcyclopropyl)amino)-1-(pyridin-3-yl)-7-(trifluoromethyl)pyrido[3,2-d]pyrimidin-2 (1H)-one] | > 1000 nM
C#CC1CCN(c2nc(=O)n(-c3ccccc3Cl)c3cc(Cl)ccc23)CC1 [Example 13, 7-chloro-1-(2-chlorophenyl)-4-(4-ethynylpiperidin-1-yl)quinazolin-2 (1H)-one] | > 1000 nM
C=CCNc1nc(=O)n(-c2cccnc2C)c2cc(C(F)(F)F)cc(OC)c12 [Example 77] | < 50 nM
C#CC1(Nc2nc(=O)n(-c3cccnc3C)c3cc(Cl)cc(OC)c23)CC1 [Example 27, 7-chloro-4-((1-ethynylcyclopropyl)amino)-5-methoxy-1-(2-methylpyridin-3-yl)quinazolin-2 (11H)-one] | < 50 nM
C#CCNc1nc(=O)n(-c2cnccn2)c2cc(C(F)(F)F)ccc12 [Example 53, 4-(prop-2-yn-1-ylamino)-1-(pyrazin-2-yl)-7-(trifluoromethyl)quinazolin-2 (1H)-one] | < 50 nM
C#CCNc1nc(=O)n(-c2cnccn2)c2cc(Cl)cc(OC)c12 [Example 21, 7-chloro-5-methoxy-4-(prop-2-yn-1-ylamino)-1-(pyrazin-2-yl)quinazolin-2 (1H)-one] | < 50 nM
C#CCNc1nc(=O)n(-c2cccnc2)c2cc(C(F)(F)F)ccc12 [Example 7, 4-(prop-2-yn-1-ylamino)-1-(pyridin-3-yl)-7-(trifluoromethyl)quinazolin-2 (1H)-one] | < 50 nM
C#CCNc1nc(=O)n(-c2cccnc2C)c2cc(Br)cc(OC)c12 [Example 19, 7-bromo-5-methoxy-1-(2-methylpyridin-3-yl)-4-(prop-2-yn-1-ylamino)quinazolin-2 (1H)-one] | < 50 nM
C#CCNc1nc(=O)n(-c2cccnc2C)c2cc(Cl)cc(OC)c12 [Example 22, 7-chloro-5-methoxy-1-(2-methylpyridin-3-yl)-4-(prop-2-yn-1-ylamino)quinazolin-2 (1H)-one] | < 50 nM
C#CC1(Nc2nc(=O)n(-c3cnccn3)c3cc(Cl)cc(OC)c23)CC1 [Example 24, 7-chloro-4-((1-ethynylcyclopropyl)amino)-5-methoxy-1-(pyrazin-2-yl)quinazolin-2 (1H)-one] | < 50 nM
C#CCNc1nc(=O)n(-c2cccnc2)c2nc(C(F)(F)F)ncc12 [Example 61, 4-(prop-2-yn-1-ylamino)-1-(pyridin-3-yl)-7-(trifluoromethyl)pyrimido[4,5-d]pyrimidin-2 (1H)-one] | < 50 nM
C#CCNc1nc(=O)n(-c2cccnc2)c2cc(Cl)cc(F)c12 [Example 29, 7-chloro-5-fluoro-4-(prop-2-yn-1-ylamino)-1-(pyridin-3-yl)quinazolin-2 (1H)-one] | < 50 nM

Results, then the compound that gave them:

IC50 | Compound
< 50 nM | C#CCNc1nc(=O)n(-c2cccnc2)c2cc(Cl)cc(OC)c12 [Example 20, 7-chloro-5-methoxy-4-(prop-2-yn-1-ylamino)-1-(pyridin-3-yl)quinazolin-2 (1H)-one]
< 50 nM | C#CC(C)Nc1nc(=O)n(-c2cccnc2)c2cc(Cl)cc(OC)c12 (stereo not shown) [Example 65]
< 50 nM | C#CCNc1nc(=O)n(-c2cccnc2)c2cc(Cl)ccc12 [Example 1, 7-chloro-4-(prop-2-yn-1-ylamino)-1-(pyridin-3-yl)quinazolin-2 (1H)-one]
< 50 nM | O=c1nc(NCC#CCN2CCOCC2)c2ccc(C(F)(F)F)cc2n1-c1cccnc1 [Example 14, 4-((4-morpholinobut-2-yn-1-yl)amino)-1-(pyridin-3-yl)-7-(trifluoromethyl)quinazolin-2 (1H)-one]
< 50 nM | C=CC1(Nc2nc(=O)n(-c3cccnc3C)c3cc(Cl)cc(OC)c23)CC1 [Example 75, 7-chloro-5-methoxy-1-(2-methylpyridin-3-yl)-4-((1-vinylcyclopropyl)amino)quinazolin-2 (1H)-one]
< 50 nM | C#CCNc1nc(=O)n(-c2cccnc2C)c2cc(Cl)cc(F)c12 [Example 30, 7-chloro-5-fluoro-1-(2-methylpyridin-3-yl)-4-(prop-2-yn-1-ylamino)quinazolin-2 (1H)-one]
< 50 nM | C#CC(C)Nc1nc(=O)n(-c2cccnc2)c2cc(C(F)(F)F)ccc12 (stereo not shown) [Example 64]
< 50 nM | C#CC1(Nc2nc(=O)n(-c3cccnc3)c3nc(C(F)(F)F)ccc23)CC1 [Example 68, 4-((1-ethynylcyclopropyl)amino)-1-(pyridin-3-yl)-7-(trifluoromethyl)pyrido[2,3-d]pyrimidin-2 (1H)-one]
< 50 nM | C#CCNc1nc(=O)n(-c2cccnc2C)c2cc(C(F)(F)F)cc(OC(F)F)c12 [Example 40, 5-(difluoromethoxy)-1-(2-methylpyridin-3-yl)-4-(prop-2-yn-1-ylamino)-7-(trifluoromethyl)quinazolin-2 (1l)-one]
< 50 nM | C=CCNc1nc(=O)n(-c2cccnc2)c2cc(Cl)ccc12 [Example 5, 4-(allylamino)-7-chloro-1-(pyridin-3-yl)quinazolin-2 (1H)-one]
< 50 nM | C#CC1(Nc2nc(=O)n(-c3nccnc3C)c3cc(Cl)cc(OC)c23)CC1 [Example 25, 7-chloro-4-((1-ethynylcyclopropyl)amino)-5-methoxy-1-(3-methylpyrazin-2-yl)quinazolin-2 (1H)-one]
< 50 nM | C#CCNc1nc(=O)n(-c2cccnc2)c2nc(C(F)(F)F)ccc12 [Example 57, 4-(prop-2-yn-1-ylamino)-1-(pyridin-3-yl)-7-(trifluoromethyl)pyrido[2,3-d]pyrimidin-2 (1H)-one]
< 50 nM | C#CC1(Nc2nc(=O)n(-c3cccnc3C)c3cc(C(F)(F)F)ccc23)CC1 [Example 46, 4-((1-ethynylcyclopropyl)amino)-1-(2-methylpyridin-3-yl)-7-(trifluoromethyl)quinazolin-2 (1H)-one]
